Results as given in ChEMBL document CHEMBL3991601, “The target landscape of clinical kinase drugs” (Science, 2017).
Activity calls are given as the source filed them.

Key:
[1] = molecular target: Obg-like ATPase 1 (Homo sapiens, UniProt Q9NTK5)
[2] = molecular target: T1, Ras-related protein Rab-27A (Homo sapiens, UniProt P51159)
T1 sequence (P51159 whole entry): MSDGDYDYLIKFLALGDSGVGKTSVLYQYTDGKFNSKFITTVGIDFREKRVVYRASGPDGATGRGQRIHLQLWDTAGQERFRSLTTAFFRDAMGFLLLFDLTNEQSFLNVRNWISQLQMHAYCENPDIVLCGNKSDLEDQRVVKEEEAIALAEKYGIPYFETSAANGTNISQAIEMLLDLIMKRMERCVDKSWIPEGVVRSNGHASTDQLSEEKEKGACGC

[3] = molecular target: GTP-binding nuclear protein Ran (Homo sapiens, UniProt P62826)
[4] = molecular target: T2, Serine/threonine-protein kinase TAO1 (Homo sapiens, UniProt Q7L7X3)
T2 sequence (Q7L7X3 whole entry): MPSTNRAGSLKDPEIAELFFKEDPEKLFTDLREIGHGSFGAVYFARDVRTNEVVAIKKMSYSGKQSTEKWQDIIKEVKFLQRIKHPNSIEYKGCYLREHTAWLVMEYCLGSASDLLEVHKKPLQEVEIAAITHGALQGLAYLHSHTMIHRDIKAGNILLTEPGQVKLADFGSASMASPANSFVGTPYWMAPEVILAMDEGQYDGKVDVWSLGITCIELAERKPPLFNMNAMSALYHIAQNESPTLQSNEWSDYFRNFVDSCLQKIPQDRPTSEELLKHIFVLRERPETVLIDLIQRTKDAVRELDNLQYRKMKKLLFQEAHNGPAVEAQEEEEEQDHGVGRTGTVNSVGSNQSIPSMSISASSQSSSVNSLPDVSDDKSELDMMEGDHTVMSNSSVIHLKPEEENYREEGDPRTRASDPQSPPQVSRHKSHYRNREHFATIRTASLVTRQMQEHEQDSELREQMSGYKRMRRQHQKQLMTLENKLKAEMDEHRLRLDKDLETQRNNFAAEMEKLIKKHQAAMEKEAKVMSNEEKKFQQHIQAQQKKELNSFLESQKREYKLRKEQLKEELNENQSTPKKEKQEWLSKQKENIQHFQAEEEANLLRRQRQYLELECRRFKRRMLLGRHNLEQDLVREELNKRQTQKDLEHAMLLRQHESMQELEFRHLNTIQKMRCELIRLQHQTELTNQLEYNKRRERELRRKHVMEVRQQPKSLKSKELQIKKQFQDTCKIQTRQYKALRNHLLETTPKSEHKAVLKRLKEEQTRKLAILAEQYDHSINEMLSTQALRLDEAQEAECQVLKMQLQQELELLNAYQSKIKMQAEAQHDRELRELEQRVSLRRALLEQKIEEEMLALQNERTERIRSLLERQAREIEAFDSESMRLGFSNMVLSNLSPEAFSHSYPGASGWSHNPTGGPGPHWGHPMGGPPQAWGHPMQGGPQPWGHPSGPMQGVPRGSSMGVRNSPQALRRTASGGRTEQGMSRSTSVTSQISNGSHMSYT

[5] = molecular target: T3, General transcription and DNA repair factor IIH helicase subunit XPD (Homo sapiens, UniProt P18074); conditions: read-out: Kd apparent; k-562, colo 205, sk-n-be(2) and mv-4-11
T3 sequence (P18074 whole entry): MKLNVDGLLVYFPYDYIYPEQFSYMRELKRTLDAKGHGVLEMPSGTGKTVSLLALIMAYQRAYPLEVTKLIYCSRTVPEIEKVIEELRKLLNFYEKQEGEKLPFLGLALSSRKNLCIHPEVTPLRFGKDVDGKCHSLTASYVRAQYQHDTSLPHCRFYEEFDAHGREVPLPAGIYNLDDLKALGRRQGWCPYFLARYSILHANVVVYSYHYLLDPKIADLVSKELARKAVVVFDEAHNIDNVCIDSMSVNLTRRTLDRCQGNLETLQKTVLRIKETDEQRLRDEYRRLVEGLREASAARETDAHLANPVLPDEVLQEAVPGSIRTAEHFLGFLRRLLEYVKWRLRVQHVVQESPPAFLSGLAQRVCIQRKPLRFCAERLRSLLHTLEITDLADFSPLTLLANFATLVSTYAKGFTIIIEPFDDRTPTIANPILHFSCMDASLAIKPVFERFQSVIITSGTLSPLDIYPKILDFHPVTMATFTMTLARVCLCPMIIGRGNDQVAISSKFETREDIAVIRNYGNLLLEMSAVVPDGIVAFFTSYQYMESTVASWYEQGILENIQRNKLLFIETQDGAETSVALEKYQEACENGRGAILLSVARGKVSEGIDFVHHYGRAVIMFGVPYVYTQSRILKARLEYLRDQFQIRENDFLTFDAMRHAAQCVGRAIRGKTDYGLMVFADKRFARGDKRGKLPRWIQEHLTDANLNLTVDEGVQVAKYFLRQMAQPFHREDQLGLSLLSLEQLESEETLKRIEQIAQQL
Note: in the data inactive means no Kd found up to 30 µM.

Chain of Obg-like ATPase 1 (Q9NTK5 whole entry, looked up): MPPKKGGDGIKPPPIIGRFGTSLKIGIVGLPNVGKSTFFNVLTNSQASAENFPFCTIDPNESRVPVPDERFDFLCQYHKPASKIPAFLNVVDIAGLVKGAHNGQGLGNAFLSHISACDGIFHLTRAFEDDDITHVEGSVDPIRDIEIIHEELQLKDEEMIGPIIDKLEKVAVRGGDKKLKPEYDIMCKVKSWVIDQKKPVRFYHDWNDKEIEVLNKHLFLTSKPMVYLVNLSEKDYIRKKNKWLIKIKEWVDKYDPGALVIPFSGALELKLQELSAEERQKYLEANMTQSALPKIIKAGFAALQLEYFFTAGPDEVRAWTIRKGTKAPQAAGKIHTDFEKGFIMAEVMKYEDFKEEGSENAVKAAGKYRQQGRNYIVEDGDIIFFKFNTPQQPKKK

Kd [1]	Kd [2]	Kd [3]	Kd [4]	Kd [5]	Structure (SMILES)
> 30 µM (inactive)	> 30 µM (inactive)	> 30 µM (inactive)	> 30 µM (inactive)	> 30 µM (inactive)	O=C(NC[C@H](O)CO)c1ccncc1Nc1ccc(I)cc1F [PIMASERTIB]
> 30 µM (inactive)	> 30 µM (inactive)	> 30 µM (inactive)	> 30 µM (inactive)	> 30 µM (inactive)	C#Cc1cccc(Nc2ncnc3cc4c(cc23)OCCOCCOCCO4)c1 [ICOTINIB]
